Assay results taken from ChEMBL document CHEMBL4665686, “Dehydrohispanolone Derivatives Attenuate the Inflammatory Response through the Modulation of Inflammasome Activation” (J Nat Prod, 2020).
pIC50: −log10 of the molar value. The source made the active and inactive calls. The calls are words filed in the database; no cut-off is given here.

Key:
[1] = target: NACHT, LRR and PYD domains-containing protein 3 (Mus musculus) (UniProt Q8R4B8); assay: Inhibition of NLRP3 in mouse J774A.1 cells assessed as inhibition of LPS and nigerecin-induced IL-1beta production at 20 uM pre-stimulated with LPS for 5 hrs followed by compound treatment for 30 mins and then nigericin addition for 45 mins by ELISA; assay type: cell-based; conditions: J774.A1, time 75.0 min
Chain of NACHT, LRR and PYD domains-containing protein 3 (Mus musculus) (Q8R4B8 whole entry, the tested form may be a part): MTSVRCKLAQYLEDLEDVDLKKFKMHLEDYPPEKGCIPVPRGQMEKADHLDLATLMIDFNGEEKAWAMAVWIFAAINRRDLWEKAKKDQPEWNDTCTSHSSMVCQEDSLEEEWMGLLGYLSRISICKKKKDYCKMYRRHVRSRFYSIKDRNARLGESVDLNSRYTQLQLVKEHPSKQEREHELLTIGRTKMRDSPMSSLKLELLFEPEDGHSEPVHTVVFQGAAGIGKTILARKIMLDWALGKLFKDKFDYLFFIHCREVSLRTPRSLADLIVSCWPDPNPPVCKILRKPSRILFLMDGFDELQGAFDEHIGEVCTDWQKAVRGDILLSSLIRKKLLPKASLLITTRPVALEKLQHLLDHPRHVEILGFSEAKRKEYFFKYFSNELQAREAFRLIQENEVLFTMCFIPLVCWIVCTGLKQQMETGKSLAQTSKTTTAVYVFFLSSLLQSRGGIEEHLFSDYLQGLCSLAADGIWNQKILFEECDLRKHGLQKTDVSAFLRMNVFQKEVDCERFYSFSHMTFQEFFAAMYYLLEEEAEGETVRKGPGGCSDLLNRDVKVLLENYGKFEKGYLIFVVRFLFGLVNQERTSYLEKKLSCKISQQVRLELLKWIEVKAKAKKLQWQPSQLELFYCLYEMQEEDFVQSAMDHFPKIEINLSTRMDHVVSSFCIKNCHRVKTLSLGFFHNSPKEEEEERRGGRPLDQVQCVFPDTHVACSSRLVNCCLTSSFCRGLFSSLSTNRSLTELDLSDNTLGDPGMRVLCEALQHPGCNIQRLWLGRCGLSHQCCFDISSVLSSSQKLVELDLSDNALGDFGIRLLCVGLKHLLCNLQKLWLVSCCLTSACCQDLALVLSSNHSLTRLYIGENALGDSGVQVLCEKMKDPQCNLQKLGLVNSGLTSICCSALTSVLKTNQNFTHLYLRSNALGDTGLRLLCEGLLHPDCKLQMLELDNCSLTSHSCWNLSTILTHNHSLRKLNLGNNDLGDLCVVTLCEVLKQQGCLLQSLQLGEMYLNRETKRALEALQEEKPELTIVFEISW

[2] = target: NACHT, LRR and PYD domains-containing protein 3 (Mus musculus) (UniProt Q8R4B8); assay: Inhibition of NLRP3 in mouse J774A.1 cells assessed as inhibition of LPS-induced NO production at 20 uM measured after 24 hrs by Griess reagent; assay type: cell-based; conditions: J774.A1
J774.A1 = assay: Cytotoxicity against mouse J774.A1 cells assessed as cell viability at 10 to 20 uM after 24 hrs by MTT assay; assay type: cell-based; conditions: j774.a1, 24 h, dose 10-20 µM
[3] = target: NACHT, LRR and PYD domains-containing protein 3 (Mus musculus) (UniProt Q8R4B8); assay: Inhibition of NLRP3 in mouse J774A.1 cells assessed as inhibition of LPS and MSU-induced IL-1beta production at 20 uM pre-stimulated with LPS for 5 hrs followed by compound treatment for 30 mins and then MSU addition for 24 hrs by ELISA; assay type: cell-based; conditions: J774.A1, time 24.5 hrs
[4] = target: NACHT, LRR and PYD domains-containing protein 3 (Mus musculus) (UniProt Q8R4B8); assay: Inhibition of NLRP3 in mouse J774A.1 cells assessed as inhibition of LPS and nigericin-induced cleaved IL-1beta production at 20 uM pre-stimulated with LPS for 5 hrs before compound addition with ATP for 45 mins by Western blot analysis; assay type: cell-based; conditions: J774.A1
[5] = target: NACHT, LRR and PYD domains-containing protein 3 (Mus musculus, UniProt Q8R4B8); assay: Inhibition of NLRP3 in mouse J774A.1 cells assessed as inhibition of LPS and nigerecin-induced IL-1beta production pre-stimulated with LPS for 5 hrs followed by compound treatment for 30 mins and then nigericin addition for 45 mins by ELISA; assay type: cell-based, J774.A1
Chain of NACHT, LRR and PYD domains-containing protein 3 (Q8R4B8 whole entry, the tested form may be a part): as above

[6] = target: NACHT, LRR and PYD domains-containing protein 3 (Mus musculus) (UniProt Q8R4B8); assay: Inhibition of NLRP3 in mouse J774A.1 cells assessed as inhibition of LPS and ATP-induced IL-1beta production at 20 uM pre-stimulated with LPS for 5 hrs followed by compound treatment for 30 mins and then ATP addition for 45 mins by ELISA; assay type: cell-based; conditions: J774.A1, time 75.0 min
[7] = target: NACHT, LRR and PYD domains-containing protein 3 (Mus musculus) (UniProt Q8R4B8); conditions: J774.A1, dose 300.0 nM, time 45.0 min

## CC1=C(CCC2CCOC2)[C@@]2(C)CCCC(C)(C)[C@@H]2CC1=O (some centres undefined)
[1]
  inhibition: Active
[2]
  inhibition: > 50%
J774.A1
  Activity: Non-Toxic

## CCC1=C(Cc2ccoc2)C(=O)[C@@]2(C)CCCC(C)(C)[C@@H]2C1
[1]
  inhibition: Active
[2]
  inhibition: > 50%
J774.A1
  Activity: Non-Toxic

## CC1=C(CCc2ccoc2)[C@@]2(C)CCCC(C)(C)[C@@H]2C/C1=N/OC(=O)CCCCC(=O)O/N=C1/C[C@H]2C(C)(C)CCC[C@]2(C)C(CCc2ccoc2)=C1C
J774.A1
  Activity: Non-Toxic

## CC1=C(CCc2ccoc2)[C@@]2(C)CCCC(C)(C)[C@@H]2C/C1=N/OC(=O)c1ccc(Br)cc1
[2]
  inhibition: > 50%
J774.A1
  Activity: Non-Toxic

## CC1=C(CCc2ccoc2)[C@@]2(C)CCCC(C)(C)[C@@H]2C/C1=N/OC(=O)N(C)C
J774.A1
  Activity: Non-Toxic

## CC1=C(CCc2ccoc2)[C@@]2(C)CCCC(C)(C)[C@@H]2C/C1=N/O
J774.A1
  Activity: Non-Toxic

## CO/N=C1/C[C@H]2C(C)(C)CCC[C@]2(C)C(CCc2ccoc2)=C1C
J774.A1
  Activity: Non-Toxic

## CCCCCCCCCCCC(=O)O/N=C1/C[C@H]2C(C)(C)CCC[C@]2(C)C(CCc2ccoc2)=C1C
[3]
  inhibition: Active
[4]
  inhibition: Active
[1]
  inhibition: Active
[5]
  pIC50: 4.73
J774.A1
  Activity: Non-Toxic
[6]
  inhibition: Active

## CC1=C(CCc2ccoc2)[C@@]2(C)CCCC(C)(C)[C@@H]2C/C1=N/OC(=O)c1ccc(C(=O)O/N=C2/C[C@H]3C(C)(C)CCC[C@]3(C)C(CCc3ccoc3)=C2C)cc1
[3]
  inhibition: Active
[4]
  inhibition: Active
[1]
  inhibition: Active
[5]
  pIC50: 4.86
J774.A1
  Activity: Non-Toxic
[6]
  inhibition: Active

## CC1=C(CCc2ccoc2)[C@@]2(C)CCCC(C)(C)[C@@H]2CC1=O
J774.A1
  Activity: Toxic

## CC(C)(O)c1coc(S(=O)(=O)NC(=O)Nc2c3c(cc4c2CCC4)CCC3)c1
[7]
  inhibition: Active

## CO[C@H]1C[C@H]2C(C)(C)CCC[C@]2(C)C(CCc2ccoc2)=C1C
J774.A1
  Activity: Non-Toxic

## CC1=C(CCc2ccoc2)[C@@]2(C)CCCC(C)(C)[C@@H]2C/C1=N/OS(=O)(=O)c1ccc(C)cc1
J774.A1
  Activity: Non-Toxic

## CC1=C(CCc2ccoc2)[C@@]2(C)CCCC(C)(C)[C@@H]2C[C@@H]1O
J774.A1
  Activity: Toxic

## CC1=C(CCc2ccoc2)[C@@]2(C)CCCC(C)(C)[C@@H]2C/C1=N/OC(=O)c1cccc(C(=O)O/N=C2/C[C@H]3C(C)(C)CCC[C@]3(C)C(CCc3ccoc3)=C2C)n1
J774.A1
  Activity: Non-Toxic

## CC1=C(CCc2ccoc2)[C@@]2(C)CCCC(C)(C)[C@@H]2CC1N (some centres undefined)
J774.A1
  Activity: Toxic

## CC1=C(CCc2ccoc2)[C@@]2(C)CCCC(C)(C)[C@@H]2C/C1=N/OC(=O)c1ccc(C(=O)O)cc1
J774.A1
  Activity: Toxic

## CC(=O)O/N=C1/C[C@H]2C(C)(C)CCC[C@]2(C)C(CCc2ccoc2)=C1C
J774.A1
  Activity: Non-Toxic

## CC1=C(CCc2ccoc2)[C@@]2(C)CCCC(C)(C)[C@@H]2CC(=O)N1
J774.A1
  Activity: Non-Toxic
